{
  "source": "patent US9605050B2",
  "about": "“Glycoprotein synthesis and remodeling by enzymatic transglycosylation” (UNIVERSITY OF MARYLAND, BALTIMORE, priority 2006, dated 2017)",
  "key": {"[1]": {"target": "T1, Endo-A (Glutamicibacter protophormiae, UniProt Q9ZB22)", "T1 sequence (Q9ZB22 entry or part of it)": "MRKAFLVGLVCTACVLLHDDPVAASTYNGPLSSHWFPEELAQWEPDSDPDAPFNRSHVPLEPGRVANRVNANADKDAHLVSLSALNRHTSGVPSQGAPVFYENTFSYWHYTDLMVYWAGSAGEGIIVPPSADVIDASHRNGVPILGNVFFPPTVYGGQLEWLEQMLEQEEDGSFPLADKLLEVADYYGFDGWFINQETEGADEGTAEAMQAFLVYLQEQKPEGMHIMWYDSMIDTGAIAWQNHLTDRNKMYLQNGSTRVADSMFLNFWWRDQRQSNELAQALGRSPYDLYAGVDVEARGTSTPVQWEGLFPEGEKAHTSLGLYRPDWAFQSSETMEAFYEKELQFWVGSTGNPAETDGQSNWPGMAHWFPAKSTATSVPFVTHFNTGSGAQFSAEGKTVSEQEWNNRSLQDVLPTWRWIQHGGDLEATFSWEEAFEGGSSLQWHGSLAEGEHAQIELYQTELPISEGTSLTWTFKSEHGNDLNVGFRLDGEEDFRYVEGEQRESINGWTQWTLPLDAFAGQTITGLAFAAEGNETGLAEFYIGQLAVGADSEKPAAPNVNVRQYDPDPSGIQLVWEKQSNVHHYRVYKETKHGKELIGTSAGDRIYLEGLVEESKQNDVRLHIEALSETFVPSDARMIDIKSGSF", "test": "Endo-A catalyzed transglycosylation of synthetic oligosaccharide oxazolines (donor substrates) with GlcNAc-peptide/protein acceptors", "type": "biochemical, Arthrobacter protophormiae", "details": "acceptor GlcNAc-RB (43), donor/acceptor 2:1, pH 6.5, 23° C., Endo-A 200 mU"}, "[2]": {"target": "T1, Endo-A", "test": "Endo-A catalyzed transglycosylation of synthetic oligosaccharide oxazolines (donor substrates) with GlcNAc-peptide/protein acceptors", "type": "biochemical, Arthrobacter protophormiae", "details": "for donor substrate activity in Endo-A catalyzed transglycosylation: GlcNAc-tripeptide acceptor (27 or 40), phosphate buffer pH 6.5; for relative transglycosylation rates (order): acceptor 27, same conditions; for donor substrate activity in Endo-A transglycosylation to large acceptor: acceptor GlcNAc-C34, donor/acceptor 5:1", "excerpt": "To test the transglycosylation potential of the synthetic oligosaccharide oxazolines, a small GlcNAc-tripeptide acceptor, Asn(GlcNAc)-Ile-Thr was synthesized, which represents the minimum consensus sequence for the N24 and N38 N-glycosylation sites in erythropoietin, an important therapeutic glycoprotein for the treatment of anemia.[25] […] As expected, the Endo-A catalyzed reaction of oxazolines 1 and 2 with the GlcNAc-peptide 27 (donoracceptor 3:1) proceeded smoothly in a phosphate buffer (pH 6.5) to give the corresponding N-glycopeptides 28 and 29 in 63 and 86% yields, respectively. […] Thus incubation of 3 and acceptor 27 (ratio 3:1) in the presence of Endo-A gave glycopeptide 30 carrying the N-linked tetrasaccharide moiety in 72% isolated yield. […] The Endo-A catalyzed reaction of 4 with acceptor 27 (3:1) afforded the modified glycopeptide 31 in 55% isolated yield.\n(§1) In all cases, the newly formed glycosidic bond in the resulting glycopeptides 28, 29, 30, and 31 was determined by 2D NMR analysis (data not shown) to be a β-1,4-glycosidic linkage, confirming the previous conclusion that the Endo-A catalyzed transglycosylation using oligosaccharide oxazoline as the donor substrates proceeded in a regio- and stereospecific manner.[11]\nNext, the structurally related disaccharide oxazolines 5-7 were tested. […] Despite this, the enzyme could tolerate selective modification on the mannose moiety, for example, attachment of additional sugar moieties at the 3′,6′-positions and even an aromatic group at the 6′-position.\n(§2) This led to the synthesis of the large glycopeptide 32 that contains the core N-linked tetrasaccharide (75% yield) and glycopeptide 33 which carries a modified trisaccharide (68%) when an excess oxazoline donor (donor/acceptor 5:1) was used. […] Finally, we also tested whether Endo-A could hydrolyze the resulting “ground-state” glycopeptides 28-33 carrying the N-linked core tri-, tetra-, and pentasaccharide, respectively.\nA mixture of the respective oligosaccharide oxazoline (10-30 μmol) and the GlcNAc-tripeptide 27 (3 molar equivalents of the donor) or the GlcNAc-C34[7] (5 molar equivalents of the donor) in a phosphate buffer (50 mM, pH 6.5, 0.5-1 mL) was incubated at 25° C. with the enzyme Endo-A (100 mU). The oxazoline derivative was added in portions during the reaction. The reaction was monitored by analytical HPLC by taking aliquots at intervals. It was observed that the transglycosylation reaction with the disaccharide oxazoline derivatives 1 and 4 proceeded slowly and took more than 48 h for reaching the plateau, while the transglycosylation with the tetrasaccharide oxazoline 2 proceeded quickly and would be complete within 2 h. The reaction was stopped by heating in a boiling water bath for 3 min when the peak of the transglycosylation product reached the maximum. The product was purified by preparative HPLC on a Waters preparative column (Symmetry 300, 19×300 mm) to afford the respective glycopeptide, which was characterized by NMR and ESI-MS).\nTo examine whether the endoglycosidase Endo-A is able to recognize the synthetic nonnatural sugar oxazoline for trans-glycosylation, a model reaction was carried out with a small GlcNAc-peptide, Ac-Asn(GlcNAc)-Ile-Thr (40),[9] as the acceptor, as shown in FIG. 11. The enzymatic reaction was monitored by reverse-phase HPLC. It was observed that the reaction between 39 and 40 (molar ratio 2:1) occurred quickly in the presence of Endo-A, while no ligation would occur in the absence of the enzyme. The glycosylation of the acceptor 40 with oxazoline 39 under the catalysis of Endo-A was essentially complete within 30 min to form the glycopeptide 41, which was isolated in 98% yield. The identity of the glycopeptide was characterized by ESI-MS and NMR.\nA mixture of the hexasaccharide oxazoline 39 (0.69 mg, 0.68 μmol) and the GlcNAc-tripeptide 40 (0.2 mg, 0.34 μmol) in a phosphate buffer (50 mM, pH 6.5, 100 μl) was incubated at 23° C. with the enzyme Endo-A (200 mU). […]"}, "[3]": {"tested_on": "Bacillus chitinase", "details": "cited from earlier work"}, "[4]": {"target": "T1, Endo-A", "test": "Endo-A catalyzed hydrolysis of oxazolines and of the resulting glycopeptides/glycoprotein", "type": "biochemical, Arthrobacter protophormiae", "details": "glycopeptides: in the presence of large amount of Endo-A", "protocol": "as §1, §2\nThis is understandable because glycoprotein 44 carries a nonnatural N-glycan and Endo-A is known to hydrolyze only high-mannose type natural N-glycans. […] All these factors contribute to the formation of the trans-glycosylation product. Similarly, Endo-A catalyzed reaction of GlcNAc-RB with the tetrasaccharide oxazoline 2 [7] gave the glycoprotein 45 carrying the core N-linked pentasaccharide Man3GlcNAc2 in 82% yield (Scheme 3). Again, the observed MS (14574.5 Da, from the deconvolution of the ESI-MS data) of the isolated product matches well with the calculated MS (14575.6 Da) of glycoprotein 45. […]"}},
  "data": [
    {"molecule": "O-β-D-Galactopyranosyl-(1→4)-α-D-mannopyranosyl-(1→3)-[β-D-galactopyranosyl-(1→4)-α-D-mannopyranosyl-(1→6)]-β-D-mannopyranosyl-(1β4)-(1,2-dideoxy-α-D-glucopyrano)-[2,1-d]-2-oxazoline [oxazoline 39]", "values": [
      {"measurement": "time to complete conversion of GlcNAc-RB", "setting": "[1]", "result": "≤ 2", "unit": "h"},
      {"measurement": "donor substrate activity in Endo-A catalyzed transglycosylation", "setting": "[2]", "result": "excellent substrate"},
      {"measurement": "time to essentially complete glycosylation of acceptor 40", "setting": "[2]; acceptor Ac-Asn(GlcNAc)-Ile-Thr (40), donor/acceptor 2:1, 23° C., Endo-A 200 mU", "result": "≤ 30", "unit": "min"},
      {"measurement": "transglycosylation rate compared with enzymatic hydrolysis of the oxazoline", "setting": "[2]; in the presence of a GlcNAc-peptide or protein acceptor", "result": "much faster"}
    ]},
    {"molecule": "CC1=N[C@H]2[C@@H](O1)O[C@H](CO)[C@@H](O[C@@H]1O[C@H](CO)[C@@H](O)[C@H](O)[C@@H]1O)[C@@H]2O", "note": "[oxazoline 1]", "values": [
      {"measurement": "donor substrate activity in Endo-A catalyzed transglycosylation", "setting": "[2]", "result": "good donor substrates"},
      {"measurement": "relative transglycosylation rates (order)", "setting": "[2]", "result": "tetrasaccharide oxazoline 2>trisaccharide oxazoline 3>disaccharide oxazoline 1>Bn-substituted disaccharide oxazoline 4"}
    ]},
    {"molecule": "CC1=NC2C(O1)OC(CO)C(OC1OC(CO)C(O)C(O)C1O)C2O", "note": "(stereo not drawn) [oxazoline 5]", "values": [
      {"measurement": "donor substrate activity in Endo-A catalyzed transglycosylation", "setting": "[2]; listed as 5", "result": "inactive"}
    ]},
    {"molecule": "CC1=N[C@H]2[C@@H](O1)O[C@H](CO)[C@@H](O[C@@H]1O[C@H](COCc3ccccc3)[C@@H](O)[C@H](O)[C@@H]1O)[C@@H]2O", "note": "[oxazoline 4]", "values": [
      {"measurement": "donor substrate activity in Endo-A catalyzed transglycosylation", "setting": "[2]", "result": "could still be recognized by Endo-A as a donor substrate"},
      {"measurement": "relative transglycosylation rates (order)", "setting": "[2]", "result": "tetrasaccharide oxazoline 2>trisaccharide oxazoline 3>disaccharide oxazoline 1>Bn-substituted disaccharide oxazoline 4"},
      {"measurement": "donor substrate activity in Endo-A transglycosylation to large acceptor", "setting": "[2]", "result": "proceeded successfully"}
    ]},
    {"molecule": "CC(=O)N[C@H]1[C@H](O[C@H]2[C@H](O)[C@H]3N=C(C)O[C@H]3O[C@@H]2CO)O[C@H](CO)[C@@H](O)[C@@H]1O", "note": "[oxazoline 6, chitobiose oxazoline, reference compound]", "values": [
      {"measurement": "substrate of Bacillus chitinase", "setting": "[3]", "result": "substrates"},
      {"measurement": "donor substrate activity in Endo-A catalyzed transglycosylation", "setting": "[2]", "result": "could not be recognized by Endo-A"}
    ]},
    {"molecule": "CC1=NC2C(O1)OC(CO)C(OC1OC(CO)C(O)C(O)C1O)C2O", "note": "(stereo not drawn) [oxazoline 7, LacNAc-oxazoline, reference compound]", "values": [
      {"measurement": "substrate of Bacillus chitinase", "setting": "[3]", "result": "substrates"},
      {"measurement": "donor substrate activity in Endo-A catalyzed transglycosylation", "setting": "[2]; listed as 7", "result": "could not be recognized by Endo-A"}
    ]},
    {"molecule": "CC1=N[C@H]2[C@@H](O1)O[C@H](CO)[C@@H](O[C@@H]1O[C@H](CO[C@H]3O[C@H](CO)[C@@H](O)[C@H](O)[C@@H]3O)[C@@H](O)[C@H](O)[C@@H]1O)[C@@H]2O", "note": "[oxazoline 3]", "values": [
      {"measurement": "donor substrate activity in Endo-A catalyzed transglycosylation", "setting": "[2]", "result": "efficient donor substrate"},
      {"measurement": "relative transglycosylation rates (order)", "setting": "[2]", "result": "tetrasaccharide oxazoline 2>trisaccharide oxazoline 3>disaccharide oxazoline 1>Bn-substituted disaccharide oxazoline 4"},
      {"measurement": "donor substrate activity in Endo-A transglycosylation to large acceptor", "setting": "[2]", "result": "proceeded successfully"}
    ]},
    {"molecule": "glycoprotein 44: homogeneous ribonuclease B glycoform carrying nonnatural N-glycan Gal2Man3GlcNAc2 at Asn-34 (protein, UniProt P61823 27-150, looked up, Gal2Man3GlcNAc2 N-glycan at Asn-34) Ribonuclease pancreatic: KETAAAKFERQHMDSSTSAASSSNYCNQMMKSRNLTKDRCKPVNTFVHESLADVQAVCSQKNVACKNGQTNCYQSYSTMSITDCRETGSSKYPNCAYKTTQANKHIIVACEGNPYVPVHFDASV", "values": [
      {"measurement": "hydrolysis of the ground-state glycopeptide/glycoprotein by Endo-A", "setting": "[4]", "result": "resistant to Endo-A catalyzed hydrolysis"}
    ]}
  ]
}
